Data as given in EP0260814B1, “Dopamine-Beta-hydroxylase inhibitors” (SMITHKLINE BEECHAM CORPORATION, priority 1986, dated 1988).

Key:
[1] = study comparing effects on blood pressure of hydroxy compounds and their methoxy analogues; format: in vivo; conditions: for blood pressure reductions: equivalent doses of hydroxy compound and methoxy analogue
Excerpt: In a study conducted to compare the effects on blood pressure of compounds wherein Y is -OH, X is 3-F or 3,5-F₂ and n is 1 to their Y is -OCH₃ analogues, the maximum blood pressure reduction observed after administration of the hydroxy compound in which X is 3-F was 18%, whereas one-half the dose of its methoxy analogue produced a 35% blood pressure reduction. Also, equivalent doses of the compound in which Y is -OH, X is 3,5-F₂, and n is 1 and its Y is -OCH₃ analogue produced, respectively, 20% and 35% blood pressure reductions.

[2] = molecular target: T1, DBH (Homo sapiens, UniProt P09172); assay: in vitro DBH inhibition: conversion of tyramine to octopamine in the presence of DBH, absorbance at 330 nm; format: biochemical
T1 sequence (P09172 1-617): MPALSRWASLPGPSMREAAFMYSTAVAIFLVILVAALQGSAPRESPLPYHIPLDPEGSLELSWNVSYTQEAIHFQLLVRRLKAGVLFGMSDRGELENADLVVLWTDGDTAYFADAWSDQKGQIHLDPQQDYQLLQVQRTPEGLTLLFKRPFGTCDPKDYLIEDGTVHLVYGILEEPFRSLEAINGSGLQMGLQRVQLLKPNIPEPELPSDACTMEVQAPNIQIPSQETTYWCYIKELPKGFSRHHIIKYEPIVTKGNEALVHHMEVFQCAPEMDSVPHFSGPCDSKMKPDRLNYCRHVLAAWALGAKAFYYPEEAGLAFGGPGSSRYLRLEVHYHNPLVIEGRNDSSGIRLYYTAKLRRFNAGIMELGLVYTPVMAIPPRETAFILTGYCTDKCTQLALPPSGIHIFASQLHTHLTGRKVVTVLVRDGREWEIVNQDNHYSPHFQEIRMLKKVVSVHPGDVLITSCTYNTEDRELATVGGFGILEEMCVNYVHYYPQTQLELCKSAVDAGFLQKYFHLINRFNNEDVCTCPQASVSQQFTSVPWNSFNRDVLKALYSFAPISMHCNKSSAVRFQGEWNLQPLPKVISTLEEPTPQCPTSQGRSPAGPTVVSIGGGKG
Method: Octopamine was assayed following sodium periodate oxidation to p-hydroxybenzaldehyde by measuring spectrophotometric absorbance at 330 nm. […] Melting points (mp) are given in °C. […]

[3] = tested on: peripheral dopamine and norepinephrine levels; assay: effects on peripheral dopamine and norepinephrine levels (procedure of DaPrada and Zürcher); format: in vivo, Spontaneously hypertensive rats
Method: Spontaneously hypertensive rats were dosed twice, the second dose being about 18 hr after the first, and were sacrificed about 2 hr after the second dose. […] In Table II, R= -H, Y= -OH and n=1; in Table II A, R= -H, Y= -OCH₃, and n=1.

[4] = molecular target: T1, DBH; conditions: reported by Runti et al.; cited from earlier work

SMILES: Oc1ccc(Cn2ccnc2S)cc1F [n=1, X=3-F, Y=OH, R=H]
- maximum blood pressure reduction ([1]; after administration of the hydroxy compound, dose not given): 18%
- IC50 ([2]; molar concentration of compound at which DBH activity was halved, read-out: IC₅₀): 1400 nM

SMILES: Oc1c(F)cc(Cn2ccnc2S)cc1F [n=1, X=3,5-F₂, Y=OH, R=H]
- blood pressure reductions ([1]; dose not given): 20%
- DA/NE Ratio ([3]; Table II (for X= compounds: R= -H, Y= -OH, n=1), 50 mg/kg, dosed twice): .0824 .0128^(2)
- DA (µg/g) ([3]; Table II (for X= compounds: R= -H, Y= -OH, n=1), 50 mg/kg, dosed twice, sacrificed about 2 hr after second dose): .708 .068^(1) µg/g

SMILES: O=C(O)c1ccc(Cc2ccc(O)cc2)cn1 [phenypicolinic acid]
- inhibitory activity relative to fusaric acid [4]: twice the inhibitory activity of fusaric acid

SMILES: COc1ccc(Cn2ccnc2S)cc1F [Example 5, 1-(3-Fluoro-4-methoxybenzyl)-2-mercaptoimidazole]
- blood pressure reduction ([1]; one-half the dose of the hydroxy compound in which X is 3-F): 35%
- inhibition at 100 µM ([2]; at 10⁻⁴ molar concentration): 67%

SMILES: COc1c(F)cc(Cn2ccnc2S)cc1F [Example 6, 1-(3,5-Difluoro-4-methoxybenzyl)-2-mercaptoimidazole]
- blood pressure reductions ([1]; dose not given): 35%
- DA/NE Ratio ([3]; Table IIA (R= -H, Y= -OCH₃, n=1), dose not given): .204^(1)
- DA ([3]; Table IIA (R= -H, Y= -OCH₃, n=1), dose not given, dosed twice, sacrificed about 2 hr after second dose): 1.178 ± .087 µg/g
